Results published in patent US20050107386A1, “Methods of treating diseases and disorders by targeting multiple kinases” (priority 2003, published 2005).

Columns and labels:
[1] = test system: cancer cell lines: non-small cell lung (NSCLC); colon; pancreatic; head and neck; breast and ovarian cancers; assay: Antiproliferative activity against a broad spectrum of cancer cell lines; assay type: cell-based; details: each of the cancer cell line types
Source text: (§1) CC001 is a low molecular weight mixed kinase inhibitor (MKI) with potent in vitro inhibitory activity against a variety of kinases.

NCI-H460 NSCLC xenograft = NCI-H460 NSCLC xenograft model; assay type: in vivo; details: CC001 combined with the maximum tolerated dose of Taxotere
Experimental: A similar study was performed using an NCI-H460 NSCLC xenograft model in which CC001 was combined with the maximum tolerated dose of Taxotere (an anti-cancer compound related to taxol). […]. […]

cancer cell lines = assay: In vitro combination studies with standard chemotherapeutic agents and signal transduction inhibitors; assay type: cell-based; details: with standard chemotherapeutic agents such as taxol, and novel signal transduction inhibitors
Source text: as §1

colon and lung tumors = assay: SCID mice bearing colon and lung tumors; assay type: in vivo, mouse; details: 10 mg/kg to 20mg/kg twice a day, single agent
Experimental: SCID mice bearing colon and lung tumors were treated with CC001 at a concentration of 10 mg/kg to 20mg/kg, administered twice a day.

Compound: COc1ccc2cc(-c3n[nH]c4ccc(-c5n[nH]c(CN6CCOCC6)n5)cc34)ccc2c1 [CC001, 3-(6-Methoxynaphthalen-2-yl)-5-(5-Morpholin-4-Ylmethyl-1H-[1,2,4]Triazol-3-yl)-1H-Indazole]
- antiproliferative activity, IC50 values [1]: nanomolar range
- T/C ratio (NCI-H460 NSCLC xenograft): 16-28%
- additional toxicity as evidenced by weight loss (NCI-H460 NSCLC xenograft): No apparent additional toxicity
- antiproliferative activity in combination (cancer cell lines): additive and/or synergistic antiproliferative activity
- T/C ratio (colon and lung tumors): 40-60%
- tumor growth, in words (colon and lung tumors): inhibited tumor growth in a dose-dependent manner
